Measured values: patent publication US11179408B2, “Use of cyanoglucosides and pharmaceutical formulations thereof in the treatment of diabetes” (UNIVERSIDADE ESTADUAL PAULISTA JULIO DE MESQUITA FILHO, priority 2016, dated 2021)

Columns and labels:
[1] = tested on: diabetic mice; assay: Intraperitoneal glucose tolerance test (IPGTT) in diabetic mice; assay type: in vivo; conditions: streptozotocin diabetic mice; for IPGTT area under the curve (AUC): compared to CTLSAL group
Procedure: The leaves extract obtained under Example 1 was tested at a concentration of 400 mg/kg. The mice were treated daily for days by gavage with the extract as well as metformin (300 mg/kg), and at the end of treatment they underwent an […] glucose tolerance test.
The intraperitoneal glucose tolerance assay (IPGTT) was used to evaluate the glucose disappearance from the plasma of 8-10 hours fasted mice at time 0 and after glucose intraperitoneal injection (2 g/kg) in 15, 30, 60, 90 and 120 min as represented on FIG. 2A where curves represent: CTLSAL: normoglycemic mice treated orally with saline vehicle (0.9% NaCl), STZSAL: diabetic mice treated orally with saline vehicle (0.9% NaCl), STZMET: diabetic mice treated orally with metformin at the concentration of 300 mg/kg, STZEXT: diabetic mice treated orally with 70% EtOH extract at a concentration of 400 mg/kg. […] Data expressed as mean±standard error of the mean. ANOVA followed by Tukey post test. a vs. CTLSAL, b vs. STZSAL, c vs. STZMET, N=8-12, p<0.05.
(§1) The major compound of the cyanoglicoside fraction, BH-21 was tested at a concentration of 10 mg/kg in diabetic mice by gavage daily for 28 days. Male Swiss mice were divided into two groups and treated daily for 28 days by gavage: a control group (CTLSAL) that received saline vehicle (0.9% NaCl) and a group called streptozotocin, previously treated with this drug (150 mg/kg). Animals with blood glucose higher than 250 mg/dl were included in the study and divided into three experimental groups. One group, named streptozotocin saline (STZSAL) received saline (0.9% NaCl); another group of animals treated with metformin (STZMET) at the dose of 300 mg/kg and a third group (LITHOS) received the compound BH-21 (lithospermoside), diluted in saline at a dose of 10 mg/kg body weight.

[2] = tested on: diabetic mice; assay: Fasting blood glucose in streptozotocin diabetic mice; assay type: in vivo, Male Swiss mice; conditions: for fasting blood glucose: streptozotocin diabetic mice, end of treatment, p<0.05
Procedure: The hydroalcoholic extract as obtained in Example 1 and the major compound lithospermoside (BH-21) as obtained in Example 2 were evaluated for their pharmacological activity in reducing fasting blood glucose and improving glucose tolerance in diabetic animals as described below.
as §1

[3] = tested on: alloxan-induced diabetic rats; conditions: oral, 50, 100 and 200 mg/kg; cited from earlier work
[4] = tested on: normal rats; conditions: oral, 200 mg/kg, 1 h after treatment; cited from earlier work
[5] = 10 mg/kg by gavage daily for 28 days

N#C/C=C1/C=C[C@@H](O)[C@H](O)[C@H]1OC1OC(CO)C(O)C(O)C1O (stereo in doubt) [BH-21, (2Z)-2-[(4R,5S,6S)-4,5-dihydroxy-6-[[(2S,3S,4R,5R,6S)-3,4,5-trihydroxy-6-(hydroxymethyl)-2-oxanyl]oxy]-1-cyclohex-2-enylidene]acetonitrile]
IPGTT area under the curve (AUC) [1, 5]: no significant difference
IPGTT blood glucose values after intraperitoneal administration of glucose ([1]; 10 mg/kg daily for 28 days, vs metformin 300 mg/kg group, p<0.05): significantly lower than the STZMET group at all times
in vivo hypoglycemic activity relative to metformin ([2]; higher than metformin): about 30 times
fasting blood glucose [2, 5]: significantly lower than in STZSAL and STZMET groups but greater than the CTLSAL group

CN(C)C(=N)N=C(N)N [metformin]
IPGTT area under the curve (AUC) ([1]; metformin 300 mg/kg daily for 28 days): no significant difference
fasting blood glucose ([2]; metformin 300 mg/kg daily for 28 days, vs CTLSAL): significantly increased

C[C@@H]1O[C@@H](Oc2cc(O)c3c(=O)c(O[C@@H]4O[C@@H](C)[C@H](O)[C@@H](O)[C@H]4O)c(-c4ccc(O)cc4)oc3c2)[C@H](O)[C@H](O)[C@H]1O [kaempferitrin, kaempferol-3,7-O—(R)-dirhamnoside]
hypoglycemic effect [3]: evident at all doses tested
blood glucose lowering [4]: blood glucose lowering was observed only with the higher dose
